Reference: patent US8057829B2, “Methods for repelling insects using sesquiterpene hydrocarbons and their derivatives” (Sterling International Inc., priority 2008, dated 2011)

Columns and labels:
[1] = system: female antennae of sand fly Phlebotomus papatasi and mosquitoes Aedes aegypti, Anopheles gambiae, Anopheles stephensi; assay: GC-EAD responses of sand fly and three mosquitoes to synthetic mixtures; conditions: about 100 ng of each compound, on one or more of the sand fly or the mosquitoes, FIGS. 9 and 10
In short: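 Female antennae recorded by GC-EAD (split with FID) against synthetic mixtures with about 100 ng of each compound, 1-octen-3-ol as positive control; polar Innowax column, 50° C 2 min then 10° C/min to 240° C. Effluent in humidified air at 0.5 liter/min over severed-head preparation with Ringer-filled electrodes.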

Aedes aegypti = assay: K&D module behavioral bioassay (topical repellency, biting); type: in vivo
In short: (§1)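 In vitro six-cell K&D module over 38 °C CPDA+ATP artificial blood under collagen membrane, topped by nylon organdy treated with five ethanol dilutions of test chemical (ethanol blank; DEET ca. 10 μg/cm^2 positive control). Five starved (24 h) 5–10 d-old females per cell. Biting counted over 3 min, three replicates per chemical and species.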

Anopheles stephensi = assay: as above; type: in vivo
In short: as §1

[2] = system: Aedes Aegypti, Anopheles stephensi and the sand fly P. papatasi; assay: Y-tube bioassay, statements pooled for the three species; type: in vivo, Aedes aegypti; Anopheles stephensi; Phlebotomus papatasi; conditions: clove oil ca. 10 mg/day, patchouli oil 15 mg/d, sesquiterpenes 1 to 35 mg/d release
Experimental: Aegypti and An. stephensi, and one species of sand fly, P. papatasi. Both the mosquitoes and the sand flies used in the study were from colonies maintained at the Walter Reed Army Institute of Research, Department of Entomology, Silver Spring, Md. This Y-tube bioassay system, equipped with CO2-enriched air (ca. 1 l/min) as an attractant, was made from three clear acrylic tubes (4″ diameter; 12″ length) with symmetrical 120° angles among the three tube arms; and a screen butterfly valve on the top part of the bottom releasing tube. These spatial repellency tests were carried out during 8:00 am-12:00 pm (photophase) time period for Ae. aegypti and 1:00-5:00 pm (shifted scotophase) time period for the species of night-flying mosquitoes and sand fly in a temperature and humidity controlled testing room (23-25° C. and 20-40% RH). Female mosquitoes or sand flies were stored at ˜25-26° C., 50-89% RH, 12:12 hr. (L/D), fed with 10% sucrose solution before testing. The candidate chemical (individual or mixture) dispenser and a blank control were placed in the upper left or right arm of the Y-tube before releasing 25-40, 6 to 10 day-old female mosquitoes (or 3 to 10 day-old sand flies) into the bottom tube via a small hole. After a 30-60 sec acclimation period, the butterfly screen valve (door) on the top of the bottom tube was opened. After 10 min., the valve was closed and the numbers of mosquitoes or sand flies in each arm (including the bottom tube) were counted. In order to minimize the position effect, the same experiment was repeated once with the treatment and blank control arms shifted using a new (clean) Y-tube olfactometer and a new batch of mosquitoes/sand flies. Data from these two replicates were pooled for χ2 goodness of fit test (df=1) between the treatment and blank control.

[3] = 10 μg/cm^2, DEET values are the positive control run with the chemical

## C=C1C2CCC3[C@H]2C(C)(C)CCC[C@]13C (single isomer, unassigned; (+)) [(+)-Longifolene]
[1]
  GC-EAD antennal activity: antennally active
Aedes aegypti; [3]
  % of biting (±SE) (N = 3): 53 ± 7c %
Aedes aegypti; 100 μg/cm^2
  % of biting (±SE) (N = 3): 33 ± 13bc %
Aedes aegypti; 500 μg/cm^2
  % of biting (±SE) (N = 3): 0 ± 0a %
Aedes aegypti; 1000 μg/cm^2
  % of biting (±SE) (N = 3): 0 ± 0a %
Anopheles stephensi; [3]
  % of biting (±SE) (N = 3): 53 ± 7c %
Anopheles stephensi; 100 μg/cm^2
  % of biting (±SE) (N = 3): 33 ± 7bc %
Anopheles stephensi; 500 μg/cm^2
  % of biting (±SE) (N = 3): 0 ± 0a %
Anopheles stephensi; 1000 μg/cm^2
  % of biting (±SE) (N = 3): 0 ± 0a %
[2]
  spatial repellency, in words: showed spatial repellency effects

## C=C1CC/C=C(/C)CC[C@@H]2[C@@H]1CC2(C)C [Isocaryophyllene, isocaryophyllene]
[1]
  GC-EAD antennal activity: antennally active
Aedes aegypti; [3]
  % of biting (±SE) (N = 3): 33 ± 7b %
Aedes aegypti; 100 μg/cm^2
  % of biting (±SE) (N = 3): 0 ± 0a %
Aedes aegypti; 500 μg/cm^2
  % of biting (±SE) (N = 3): 0 ± 0a %
Aedes aegypti; 1000 μg/cm^2
  % of biting (±SE) (N = 3): 0 ± 0a %
Anopheles stephensi; [3]
  % of biting (±SE) (N = 3): 33 ± 13b %
Anopheles stephensi; 100 μg/cm^2
  % of biting (±SE) (N = 3): 7 ± 7a %
Anopheles stephensi; 500 μg/cm^2
  % of biting (±SE) (N = 3): 0 ± 0a %
Anopheles stephensi; 1000 μg/cm^2
  % of biting (±SE) (N = 3): 0 ± 0a %
[2]
  spatial repellency, in words: showed spatial repellency effects

## C=C1CC/C=C(\C)CC[C@@H]2[C@@H]1CC2(C)C [β-Caryophyllene, β-caryophyllene]
[1]
  GC-EAD antennal activity: antennally active
Aedes aegypti; [3]
  % of biting (±SE) (N = 3): 40 ± 12b %
Aedes aegypti; 100 μg/cm^2
  % of biting (±SE) (N = 3): 33 ± 24b %
Aedes aegypti; 500 μg/cm^2
  % of biting (±SE) (N = 3): 0 ± 0a %
Aedes aegypti; 1000 μg/cm^2
  % of biting (±SE) (N = 3): 0 ± 0a %
Anopheles stephensi; [3]
  % of biting (±SE) (N = 3): 47 ± 18bc %
Anopheles stephensi; 100 μg/cm^2
  % of biting (±SE) (N = 3): 40 ± 12bc %
Anopheles stephensi; 500 μg/cm^2
  % of biting (±SE) (N = 3): 0 ± 0a %
Anopheles stephensi; 1000 μg/cm^2
  % of biting (±SE) (N = 3): 7 ± 7a %
[2]
  spatial repellency, in words: showed spatial repellency effects
